Test results published in patent US10723754B2, “2′,4′-bridged nucleosides for HCV infection” (IDENIX PHARMACEUTICALS LLC, priority 2012, dated 2020).
Read-outs that look alike come from different tables or passages of the source.

Legend:
[1] = test system: HCV genotype 1b replicon in Huh-7-derived cell line (Zluc); test: HCV replicon assay (luciferase reporter); type: cell-based; details: Hepatitis C virus, Zluc cells, 72 hours of incubation
Description: Huh-7-derived cell line (Zluc) that harbors an HCV genotype 1b replicon and a luciferase reporter gene was grown in Dulbecco's Modified Eagle Medium (DMEM) supplemented with 10% fetal bovine serum, 2 mM GlutaMAX, 1% MEM nonessential amino acids, 100 IU/mL penicillin, 100 μg/mL streptomycin, and 0.5 mg/mL Geneticin® (G418). For dose response testing the cells were seeded in 96-well plates at 7.5×10^3 cells per well in a volume of 50 μL, and incubated at 37° C./5% CO2. Drug solutions were made up freshly in Huh-7 media as 2× stocks. Ten additional 5-fold dilutions were prepared from these stocks in DMEM without G418. At least three hours after Zluc cells were seeded, drug treatment was initiated by adding 50 μL of drug dilutions to the plates in duplicate. Final concentrations of drug ranged from 100 μM to […]. Cells were then incubated at 37° C./5% CO2. Alternatively, compounds were tested at two concentrations (1 μM and 10 μM). […] For this, media was removed from the plates via gentle tapping. Fifty microliters of ONE-glo luciferase assay reagent was added to each well. The plates were shaken gently for 3 min at room temperature and luminescence was measured on a Victor^3 V 1420 multilabel counter (Perkin Elmer) with a 1 second read time using a 700 nm cut-off filter. The EC50 values were calculated from dose response curves from the resulting best-fit equations determined by Microsoft Excel and XLfit 4.1 software. When screening at two fixed concentrations, the results were expressed as % inhibition at 1 μM and 10 μM.

[2] = Cytotoxicity evaluation (CellTiter-Blue Cell Viability Assay); details: human
[3] = target: T1, HCV genotype 1b NS5B protein containing the S282T mutation (Hepatitis C virus genotype 1b, UniProt Q9WMX2, S2701T); test: HCV polymerase enzyme assay, S282T 1b; type: biochemical
T1 construct: approximately 65 kDa HCV genotype 1b NS5B protein; made in house
Description: (§1) Test compounds in the form of nucleoside triphosphates were examined for inhibitory activity against purified HCV polymerase in a standard assay. Bacterial expression constructs encoding the approximately 65 kDa HCV genotype 1b NS5B protein were used to generate recombinant HCV polymerases (with a deletion of the 21 carboxy terminal amino acids). The wild-type genotype 1b protein, genotype 1b protein containing the S282T mutation, wild-type genotype 1a protein, wild-type genotype 2a protein, wild-type genotype 3a protein and wild-type genotype 4a protein were expressed and purified for use in the enzymatic activity assay.
(§2) The enzymatic activity assay measured the inhibitory effect of increasing concentrations of test compound on the incorporation of α-[^33P]-labeled nucleotide into trichloroacetic acid-precipitable material. Recombinant polymerase and synthetic RNA template were combined in reaction buffer containing ribonucleoside triphosphates, α-[^33P]-labeled nucleotide and eight concentrations of test compound in three-fold dilutions. Reactions were incubated for two hours at 30° C.
(§3) Reactions were terminated by the addition of ice-cold trichloroacetic acid and sodium pyrophosphate to promote precipitation of newly-synthesized ribonucleic acid. Precipitable material from the reactions was collected by filtration onto 96-well filter plates, washed extensively with water, and quantified by liquid scintillation.
(§4) The inhibitory activity of test compounds was determined by fitting results to dose-response curves using XLfit software.

[4] = target: T2, HCV wild-type genotype 1b NS5B protein (Hepatitis C virus genotype 1b, UniProt Q9WMX2); test: HCV polymerase enzyme assay, wild-type 1b; type: biochemical
T2 construct: approximately 65 kDa HCV genotype 1b NS5B protein; made in house
Description: as §1, §2, §3, §4

in vitro = details: human
[5] = target: T3, HCV polymerase wild-type genotype 1a protein (Hepatitis C virus genotype 1a, UniProt P27958); test: HCV polymerase enzyme assay, wild-type 1a; type: biochemical
T3 construct: used to generate recombinant HCV polymerases; made in house
T3 sequence (P27958 2421-2990): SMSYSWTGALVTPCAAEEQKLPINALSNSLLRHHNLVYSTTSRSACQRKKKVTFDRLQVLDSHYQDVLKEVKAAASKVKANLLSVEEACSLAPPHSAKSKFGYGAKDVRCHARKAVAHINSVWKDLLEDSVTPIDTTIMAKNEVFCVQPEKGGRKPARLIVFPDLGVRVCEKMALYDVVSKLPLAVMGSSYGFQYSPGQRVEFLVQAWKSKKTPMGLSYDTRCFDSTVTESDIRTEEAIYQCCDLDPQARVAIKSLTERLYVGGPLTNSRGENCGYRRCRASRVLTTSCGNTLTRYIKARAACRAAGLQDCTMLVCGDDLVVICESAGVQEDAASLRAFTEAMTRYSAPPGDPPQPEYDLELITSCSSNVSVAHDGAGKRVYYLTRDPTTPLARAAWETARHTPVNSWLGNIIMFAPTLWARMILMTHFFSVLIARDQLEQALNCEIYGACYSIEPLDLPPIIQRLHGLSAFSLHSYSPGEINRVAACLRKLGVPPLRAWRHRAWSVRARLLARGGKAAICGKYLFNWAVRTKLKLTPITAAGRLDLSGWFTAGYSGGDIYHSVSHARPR
Description: as §1
(§5) The enzymatic activity assay measured the inhibitory effect of increasing concentrations of test compound on the incorporation of α-[^33P]-labeled nucleotide into trichloroacetic acid-precipitable material. […]
as §3, §4

[6] = target: T4, HCV polymerase wild-type genotype 2a protein (Hepatitis C virus genotype 2a, UniProt Q99IB8); test: HCV polymerase enzyme assay, wild-type 2a; type: biochemical; details: purified recombinant polymerase; compounds as nucleoside triphosphates
T4 construct: used to generate recombinant HCV polymerases; made in house
Description: as §1, §5, §3, §4

[7] = target: T5, HCV polymerase wild-type genotype 3a protein (Hepatitis C virus genotype 3a, UniProt Q81258); test: HCV polymerase enzyme assay, wild-type 3a; type: biochemical; details: purified recombinant polymerase; compounds as nucleoside triphosphates
T5 construct: used to generate recombinant HCV polymerases; made in house
T5 sequence (Q81258 2431-3000): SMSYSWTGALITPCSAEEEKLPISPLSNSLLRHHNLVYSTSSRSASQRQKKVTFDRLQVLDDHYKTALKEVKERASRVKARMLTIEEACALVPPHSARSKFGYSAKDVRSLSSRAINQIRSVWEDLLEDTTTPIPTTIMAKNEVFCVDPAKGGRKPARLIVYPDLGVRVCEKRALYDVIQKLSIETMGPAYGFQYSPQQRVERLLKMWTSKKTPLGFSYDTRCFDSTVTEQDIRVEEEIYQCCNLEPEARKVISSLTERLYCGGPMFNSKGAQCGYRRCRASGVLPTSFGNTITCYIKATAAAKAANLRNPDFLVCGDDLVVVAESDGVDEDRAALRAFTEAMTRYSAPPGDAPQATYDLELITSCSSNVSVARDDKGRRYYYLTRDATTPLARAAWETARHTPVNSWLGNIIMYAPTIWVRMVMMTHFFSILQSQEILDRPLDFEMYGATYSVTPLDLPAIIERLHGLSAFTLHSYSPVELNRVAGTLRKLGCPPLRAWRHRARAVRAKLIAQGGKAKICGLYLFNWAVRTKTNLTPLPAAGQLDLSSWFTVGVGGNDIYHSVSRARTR
Description: as §1, §5, §3, §4

[8] = target: T6, HCV polymerase wild-type genotype 4a protein (Hepatitis C virus genotype 4a, UniProt O39929); test: HCV polymerase enzyme assay, wild-type 4a; type: biochemical; details: purified recombinant polymerase; compounds as nucleoside triphosphates
T6 construct: used to generate recombinant HCV polymerases; made in house
T6 sequence (O39929 2418-2987): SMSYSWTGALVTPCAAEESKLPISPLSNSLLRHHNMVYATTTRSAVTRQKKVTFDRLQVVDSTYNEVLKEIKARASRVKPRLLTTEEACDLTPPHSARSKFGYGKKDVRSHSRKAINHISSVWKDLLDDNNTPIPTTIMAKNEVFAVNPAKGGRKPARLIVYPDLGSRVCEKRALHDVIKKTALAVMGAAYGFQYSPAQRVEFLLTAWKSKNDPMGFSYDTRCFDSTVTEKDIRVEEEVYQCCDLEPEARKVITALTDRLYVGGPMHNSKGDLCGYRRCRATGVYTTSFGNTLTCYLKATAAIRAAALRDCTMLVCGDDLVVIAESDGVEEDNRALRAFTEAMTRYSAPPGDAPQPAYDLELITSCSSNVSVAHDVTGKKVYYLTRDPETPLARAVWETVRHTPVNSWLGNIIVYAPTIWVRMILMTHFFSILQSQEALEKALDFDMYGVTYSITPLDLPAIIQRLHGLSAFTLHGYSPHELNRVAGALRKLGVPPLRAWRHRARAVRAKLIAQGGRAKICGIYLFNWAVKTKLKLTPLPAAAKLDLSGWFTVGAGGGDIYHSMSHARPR
Description: as §1, §5, §3, §4

[9] = purified recombinant polymerase, compounds as nucleoside triphosphates, read-out: S282T 1b IC50

For `[N-]=[N+]=N[C@H]1[C@H]2OC[C@]1(CO)O[C@H]2n1ccc(=O)[nH]c1=O` [Compound 33], the EC50 [1] was > 10 µM and the CC50 at 72 h [2] was > 50 µM.
In the case of `CC(=O)N[C@H]1[C@H]2OC[C@]1(CO)O[C@H]2n1ccc(=O)[nH]c1=O` [Compound 35], the EC50 [1] is reported as > 10 µM and the CC50 at 72 h [2] is reported as > 50 µM.
For `C[C@H](OP(=O)(O)OP(=O)(O)OP(=O)(O)O)[C@@]12CO[C@@H]([C@H](n3ccc(=O)[nH]c3=O)O1)[C@@H]2O` [Compound 104a], the IC50 [3, 9] was > 10 µM and the IC50 [4] was > 10 µM.
For `CC(OP(=O)(O)OP(=O)(O)OP(=O)(O)O)C12COC(C(n3cnc4c(=O)[nH]c(N)nc43)O1)C2O` (single isomer, unassigned) [Compound 102 Diastereomer 2], the IC50 [3, 9] was > 10 µM and the IC50 [4] was > 10 µM.
With `Nc1nc2c(ncn2[C@@H]2O[C@@]3(CO)CN[C@@H]2[C@@H]3O)c(=O)[nH]1` [Compound 38] the EC50 [1] was > 10 µM and the CC50 at 72 h (in vitro) was > 50 µM.
For `C[C@]12OC[C@](COP(=O)(O)OP(=O)(O)OP(=O)(O)O)(O[C@H]1n1cnc3c(=O)[nH]c(N)nc31)[C@H]2O` [Compound 106], the IC50 [3, 9] was 0.25 to 1 µM and the IC50 [4] was < 0.25 µM.
Work on `Nc1ccn([C@@H]2O[C@@]3(COP(=O)(O)OP(=O)(O)OP(=O)(O)O)CO[C@@H]2[C@@H]3O)c(=O)n1` [Compound 107] yielded an IC50 [3, 9] of 1 to 10 µM and an IC50 [4] of 1 to 10 µM.
For `CCOc1nc(N)nc2c1ncn2[C@@H]1O[C@@]2(COP(=O)(N[C@@H](C)C(=O)OC(C)C)Oc3ccccc3)CO[C@@H]1[C@@H]2O` (some centres unmarked) [Compound 25], the IC50 [3] was 0.25 to 1 µM and the IC50 [4] was 0.25 to 1 µM.
With `C[C@H]1O[C@H]2[C@H](n3ccc(=O)[nH]c3=O)O[C@]1(COP(=O)(O)OP(=O)(O)OP(=O)(O)O)[C@H]2O` [Compound 427] the IC50 [4] was > 10 µM.
In the case of `N[C@H]1[C@H]2OC[C@]1(COP(=O)(O)OP(=O)(O)OP(=O)(O)O)O[C@H]2n1ccc(=O)[nH]c1=O` [Compound 571], the IC50 [4] is reported as > 10 µM.
With `O=c1ccn([C@@H]2O[C@@]3(COP(=O)(O)OP(=O)(O)OP(=O)(O)O)CO[C@@H]2[C@@H]3O)c(=O)[nH]1` [Compound 108] the IC50 [3, 9] was > 10 µM and the IC50 [4] was 1 to 10 µM.
For `Nc1nc2c(ncn2[C@@H]2O[C@@]3(COP(=O)(O)OP(=O)(O)OP(=O)(O)O)CO[C@@H]2[C@@H]3O)c(=O)[nH]1` [Compound 103], the IC50 [3, 9] was 0.25 to 1 µM, the IC50 [4] was 0.25 to 1 µM and the IC50 [5] was 0.25 to 1 µM. For the same molecule, the IC50 [6] was 0.25 to 1 µM, the IC50 [7] was < 0.25 µM and the IC50 [8] was 0.25 to 1 µM.
For `[N-]=[N+]=N[C@H]1[C@H]2OC[C@]1(COP(=O)(O)OP(=O)(O)OP(=O)(O)O)O[C@H]2n1ccc(=O)[nH]c1=O` [Compound 401], the IC50 [4] was > 10 µM.
In the case of `C[C@H]1O[C@H]2[C@H](n3cnc4c(=O)[nH]c(N)nc43)O[C@]1(COP(=O)(O)OP(=O)(O)OP(=O)(O)O)[C@H]2O` [Compound 426], the IC50 [4] is reported as > 10 µM.
In the case of `COC(=O)N[C@H]1[C@H]2OC[C@]1(CO)O[C@H]2n1ccc(=O)[nH]c1=O` [Compound 37], the EC50 [1] is reported as > 10 µM and the CC50 at 72 h [2] is reported as > 50 µM.
With `Nc1nc2c(ncn2[C@@H]2O[C@@]3(COP(=O)(O)OP(=O)(O)OP(=O)(O)O)CN[C@@H]2[C@@H]3O)c(=O)[nH]1` [Compound 570] the IC50 [4] was > 10 µM.
In the case of `CS(=O)(=O)N[C@H]1[C@H]2OC[C@]1(CO)O[C@H]2n1ccc(=O)[nH]c1=O` [Compound 36], the EC50 [1] is reported as > 10 µM and the CC50 at 72 h [2] is reported as > 50 µM.
For `CC(OP(=O)(O)OP(=O)(O)OP(=O)(O)O)C12COC(C(n3cnc4c(=O)[nH]c(N)nc43)O1)C2O` (single isomer, unassigned) [Compound 102 Diastereomer 1], the IC50 [3, 9] was > 10 µM.
In the case of `Nc1ncnc2c1ncn2[C@@H]1O[C@@]2(COP(=O)(O)OP(=O)(O)OP(=O)(O)O)CO[C@@H]1[C@@H]2O` [Compound 101], the IC50 [3, 9] is reported as > 10 µM and the IC50 [4] is reported as > 10 µM.
In the case of `C[C@@H](OP(=O)(O)OP(=O)(O)OP(=O)(O)O)[C@@]12CO[C@@H]([C@H](n3ccc(=O)[nH]c3=O)O1)[C@@H]2O` [Compound 104b], the IC50 [3, 9] is reported as > 10 µM and the IC50 [4] is reported as > 10 µM.
